Marks after values point to notes of the source that are not given here.
Columns and labels:
[1] = system: skin capillary permeability induced by xylene in mice; experiment: Increase of skin capillary permeability induced by xylene in mice (Evans blue); assay type: in vivo; conditions: extracts 2 mL/kg intragastric, dexamethasone 0.375 mg/kg, once a day 7 times
Procedure: Fifty mice weighing 18-22 g were randomly divided into five groups according to their body weights: MLX, MLG and MLP test groups. […] One hour after the last administration, various mice were injected with 0.5% Evans blue normal saline solution by 0.1 ml/10 g bw via caudal vein, and then xylene were dropped by 30 μL/per mouse on the abdominal skin depilated 24 hours in advance. After 20 minutes, the mice were killed by removing the cervical vertebra. The blue stained skin on the abdomen was cut off, and cut into pieces with surgical scissors, placed into a test tube with a plug, added with and soaked in 5 ml of acetone normal saline (7:3), placed in the dark for 72 hours, and centrifuged at 3000 r/min for 10 minutes to obtain a supernatant. Colorimetric detection was performed at the wavelength of 590 nm on a spectral scanning multifunctional reader to measure the absorbance (OD value). The permeability is represented by OD value, and the results are statistically compared.

[2] = system: cotton ball granuloma in mice; experiment: Cotton ball granuloma in mice; assay type: in vivo; conditions: extracts 2 mL/kg, dexamethasone 0.2 mg/kg, 7 consecutive days, n=10
Procedure: Fifty mice weighing 18-22 g were taken, 10/group, half male and half female. The mice were fixed, and disinfected on the chest with iodine. Iodine was removed with 75% alcohol cotton ball. A small hole was cut in the chest, 20 mg high-pressure sterilized cotton ball was implanted into the armpit subcutaneously from the incision with ophthalmic forceps, and then the skin was sutured. […] The above groups were administrated for 7 consecutive days. Before the end of the test on the 8th day, the body weight was measured, then the mice were killed by taking off the cervical vertebra. The implanted cotton ball was taken out together with the surrounding connective tissue, removed of the adipose tissue, wet weighted, placed into the oven at 60° C. for 24 hours, and weighed on a precision balance. The weight of granuloma was obtained by subtracting the original weight of cotton ball from the weighed weight, and the comparison and statistical analysis between groups were carried out.

[3] = system: NO release, LPS induced mouse macrophages (RAW264.7); experiment: NO release of LPS-stimulated RAW264.7 macrophages (Griess method); assay type: cell-based; conditions: positive drug andrographolide group; LPS 1 μg/mL, NO at 12 h; n=3
Procedure: (§1) Based on TNF-a-IL-6/iNOS-NO inflammatory signal pathway, the regulatory effects of drugs MLG, MLP and MLX on LPS induced inflammation of mouse macrophages (RAW264.7) were evaluated.
(§2) The original solution of drugs MLG, MLP and MLX was diluted by 80 times, 120 times and 160 times, respectively, incubated with cells for 12 h in advance, and used to stimulate cells to induce inflammation by a final concentration of 1 μg/ml LPS. Enzyme linked immunosorbent assay (ELISA) and Griess method were used to detect the release amount of TNF-α at 50 min, and IL-6 at 4 h and NO at 12 h upon LPS stimulation.
(§3) The original solution of drugs MLG, MLP and MLX was diluted by 80 times, 120 times and 160 times respectively, incubated with cells for 12 hours in advance, and then added with 1 μg/mL LPS to stimulate cell inflammation. […]
(§4) All indexes were tested strictly in accordance with the instructions of kits. Finally, the absorbance value at the specific wavelengths were detected on an enzyme labeling instrument, and the content of indexes of each sample were calculated according to the standard curve prepared by the same method. If the absorbance value is lower than the absorbance value of the sample at the lower limit of the standard curve, it is counted as lower than the relevant value, and the relevant statistics are calculated as 0 mean and 0 variance.

[4] = system: TNF-α release, LPS induced mouse macrophages (RAW264.7); experiment: TNF-α release of LPS-stimulated RAW264.7 macrophages (ELISA); assay type: cell-based; conditions: positive drug andrographolide group; LPS 1 μg/mL, TNF-α at 50 min; n=3
Procedure: as §1, §2, §3, §4

[5] = system: IL-6 release, LPS induced mouse macrophages (RAW264.7); experiment: IL-6 release of LPS-stimulated RAW264.7 macrophages (ELISA); assay type: cell-based; conditions: positive drug andrographolide group; LPS 1 μg/mL, IL-6 at 4 h; n=3
Procedure: as §1, §2, §3, §4

Structure (SMILES) | inhibition at 0.375 mg/kg ([1]; Mus musculus, po, 168 h, n=10, read-out: Inhibitory rate) [%] | Inhibitory rate ([1]; n=10) [%] | Dry weigh of granuloma [2] | Wet weigh of granuloma [2] [mg] | NO [3] [µM] | TNF-α [4] [pg/mL] | IL-6 [5] [pg/mL]
C[C@@H]1C[C@H]2[C@@H]3CCC4=CC(=O)C=C[C@]4(C)[C@@]3(F)[C@@H](O)C[C@]2(C)[C@@]1(O)C(=O)CO [dexamethasone] | > 80 | 80.7 | 35.63 ± 8.38**^ mg | 252.3 ± 33.6 |  |  | 
C=C1CC[C@@H]2[C@](C)(CO)[C@H](O)CC[C@@]2(C)[C@@H]1C/C=C1/C(=O)OC[C@H]1O [Andro., andrographolide] |  |  |  |  | 1.86 ± 0.34 | 592.26 ± 45.7 | 286.07 ± 47.81
